Laboratory results reported in patent US20250129049A1, “1H-PYRAZOLE-3-AMINE DERIVATIVE HAVING BICYCLIC BACKBONE” (Sumitomo Pharma Co., Ltd., priority 2021, published 2025).

Key:
HT1080 cells = assay: Cell growth suppression test on various cancer cell lines: HT1080; assay type: cell-based; conditions: Homo sapiens, HT-1080, 72 h; HT1080 (soft tissue sarcoma), cultured 3 days
Description: (§1) HT1080 cells (derived from soft tissue sarcoma) were cultured at 37° C. in the presence of 5% CO2 in an EMEM medium containing 10% fetal bovine serum and 1% penicillin/streptomycin. SJCRH30 cells (derived from soft tissue sarcoma) and BxPC3 cells (derived from pancreatic cancer) were cultured at 37° C. in the presence of 5% C02 in a McCoy's 5a medium containing 10% fetal bovine serum and 1% penicillin/streptomycin. SW948 cells (derived from colon cancer) were cultured at 37° C. in air in a L-15 medium containing 10% fetal bovine serum and 1% penicillin/streptomycin.
(§2) The cells were seeded for each well in a 96-well plate at 70-90% confluency 96 hours after seeding, the evaluated compound was added to the final DMSO concentration of 0.1%, and the cells were cultured for 3 days. After completion of the culture, the cell viability rate was calculated using CellTiter-Glo (registered trademark) 3D Reagent (Promega, G968B).

CHK1 kinase = CHK1 kinase (Homo sapiens (Human), UniProt O14757)
BxPC3 cells = assay: Cell growth suppression test on various cancer cell lines: BxPC3; assay type: cell-based; conditions: Homo sapiens, BXPC-3, 72 h; BxPC3 (pancreatic cancer), cultured 3 days
Description: as §1, §2

SW948 cells = assay: Cell growth suppression test on various cancer cell lines: SW948; assay type: cell-based; conditions: Homo sapiens, 72 h; SW948 (colon cancer), cultured 3 days
Description: as §1, §2

ES-2 cells = assay: Cell growth suppression experiment (ES-2); assay type: cell-based; conditions: Homo sapiens, 48 h, cultured 2 days, CellTiter-Glo 3D
Description: ES-2 cells were obtained from the American Type Culture Collection (ATCC). These cells were cultured at 37° C. in the presence of 5% CO2 in a McCoy's 5a medium containing 10% fetal bovine serum and 1% penicillin/streptomycin.
500 cells were seeded for each well in a 384-well plate, and the evaluated compound was added to the final DMSO concentration of 0.1% to culture the cells for 2 days. After completion of the culture, the cell viability rate was calculated using CellTiter-Glo (registered trademark) 3D Reagent (Promega, G968B).

SJCRH30 cells = assay: Cell growth suppression test on various cancer cell lines: SJCRH30; assay type: cell-based; conditions: 72 h; SJCRH30 (soft tissue sarcoma), cultured 3 days
Description: as §1, §2

hERG current = hERG current (Homo sapiens (Human), UniProt Q12809); assay: cell-based
[1] = Liposome encapsulation test; assay type: physicochemical; conditions: concentration upon compound introduction 2 or 3 mg/mL
Description: 6.48 g of hydrogenated soybean phosphatidylcholine (COATSOME NC-21E, NOF Corporation), 2.32 g of cholesterol (Sigma) and 2.06 g of distearoylphosphatidylethanolamine-methoxypolyethylene glycol 2000 (SUNBRIGHT DSPE-020CN, NOF Corporation) were dissolved in 560 mL of t-butyl alcohol heated to 65° C. The solution was frozen with dry ice/acetone bath and t-butyl alcohol was then removed by evaporation under reduced pressure to obtain a lipid mixture.
200 mL of 250 mM ammonium sulfate solution was added to the lipid mixture. The resulting mixture was heated to 65° C. and dispersed with a homogenizer (ULTRA-TURRAX, IKA) to obtain a crude liposome dispersion. […] A dialysis cassette (Slide-A-Lyzer G2 Dialysis Cassettes 20K MWCO, Thermo Scientific) was used to replace the outer aqueous phase of the liposome with a 10 mM L-histidine buffer/10% sucrose solution (pH 6.5) to obtain an empty liposome solution. The solution was filtered through a 0.22 μm membrane filter, and a 10 mM L-histidine buffer/10% sucrose solution (pH 6.5) was added to adjust the total lipid concentration to be 75 mM (75 μmol/mL) or 50 mM (50 μmol/mL). The prepared amount was increased or decreased appropriately.
2 to 3 mg of the test compound was weighed out. 1 mL of the empty liposome solution with a total lipid concentration of 50 mM was added. An aqueous 1 mol/L hydrochloric acid or 1 mol/L sodium hydroxide solution was added to adjust the pH to 5.5 to 7. […] Insoluble substances, when present, were removed by centrifugation for 5 minutes at 15,000× g.
The liposome encapsulation ratio was calculated as follows.
100 μL of liposome solution was passed through an ultrafiltration filter (Amicon Ultra, 100K, 0.5 mL, Merck), and centrifuged at 4° C. at 15,000×g for 10 minutes. The concentration of the compound in the filtrate after ultrafiltration was measured by HPLC as the unencapsulated compound concentration.
The liposome solution was diluted with a trifluoroacetic acid/water/methanol mixture (0.1/25/75) and was left standing for 10 minutes or longer at 5° C. The solution was centrifuged for 5 minutes at 15,000× g to remove insoluble substances. The compound concentration in the supernatant was measured by HPLC as the compound concentration in the liposome solution.
The encapsulation ratio and the encapsulation efficiency were calculated by the following equations.
HPLC measurement conditions are the following.

[2] = Pharmacokinetic test, intravenous administration to mice; assay type: in vivo; conditions: female, BALB/c, mouse, plasma, liposome formulations, 1.0 mg/kg i.v., trapezoidal method, 0 hours to last quantifiable time
Description: Blood was collected over time up to 72 hours after administration from the jugular vein under no anesthesia.

hERG = hERG (Homo sapiens (Human), UniProt Q12809); assay: in vitro; conditions: CHO cells stably expressing hERG
Sequence of hERG (Q12809 whole entry): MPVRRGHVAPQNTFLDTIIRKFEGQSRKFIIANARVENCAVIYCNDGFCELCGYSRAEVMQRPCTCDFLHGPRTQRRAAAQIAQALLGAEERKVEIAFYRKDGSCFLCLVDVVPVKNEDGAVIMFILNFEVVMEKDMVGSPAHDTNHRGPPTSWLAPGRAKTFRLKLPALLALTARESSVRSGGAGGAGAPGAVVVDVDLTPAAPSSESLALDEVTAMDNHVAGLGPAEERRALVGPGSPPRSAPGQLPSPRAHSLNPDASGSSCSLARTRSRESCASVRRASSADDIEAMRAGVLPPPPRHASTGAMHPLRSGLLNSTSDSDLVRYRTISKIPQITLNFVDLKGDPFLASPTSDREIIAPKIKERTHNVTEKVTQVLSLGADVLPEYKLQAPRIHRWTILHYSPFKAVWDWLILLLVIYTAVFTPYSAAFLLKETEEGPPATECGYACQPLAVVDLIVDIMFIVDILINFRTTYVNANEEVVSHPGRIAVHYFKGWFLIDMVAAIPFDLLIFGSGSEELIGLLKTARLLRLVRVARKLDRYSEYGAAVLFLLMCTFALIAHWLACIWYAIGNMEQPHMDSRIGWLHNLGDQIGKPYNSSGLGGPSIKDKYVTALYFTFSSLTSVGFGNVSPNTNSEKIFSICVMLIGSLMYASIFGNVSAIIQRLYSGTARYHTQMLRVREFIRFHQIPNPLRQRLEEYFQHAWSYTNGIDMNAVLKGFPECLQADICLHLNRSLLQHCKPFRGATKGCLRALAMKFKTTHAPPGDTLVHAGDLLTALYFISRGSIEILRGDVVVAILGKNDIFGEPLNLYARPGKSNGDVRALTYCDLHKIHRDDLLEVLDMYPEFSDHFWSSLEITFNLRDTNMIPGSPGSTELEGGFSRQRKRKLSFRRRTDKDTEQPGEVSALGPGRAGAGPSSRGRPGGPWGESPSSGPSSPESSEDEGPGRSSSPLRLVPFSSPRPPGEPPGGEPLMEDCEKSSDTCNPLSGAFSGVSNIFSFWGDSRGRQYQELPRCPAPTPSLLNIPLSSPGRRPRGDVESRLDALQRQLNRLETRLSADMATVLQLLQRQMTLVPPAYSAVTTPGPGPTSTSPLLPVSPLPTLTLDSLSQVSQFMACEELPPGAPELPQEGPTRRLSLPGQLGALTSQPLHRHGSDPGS

Sequence of hERG current (Q12809 whole entry): as above
Sequence of CHK1 kinase (O14757 whole entry): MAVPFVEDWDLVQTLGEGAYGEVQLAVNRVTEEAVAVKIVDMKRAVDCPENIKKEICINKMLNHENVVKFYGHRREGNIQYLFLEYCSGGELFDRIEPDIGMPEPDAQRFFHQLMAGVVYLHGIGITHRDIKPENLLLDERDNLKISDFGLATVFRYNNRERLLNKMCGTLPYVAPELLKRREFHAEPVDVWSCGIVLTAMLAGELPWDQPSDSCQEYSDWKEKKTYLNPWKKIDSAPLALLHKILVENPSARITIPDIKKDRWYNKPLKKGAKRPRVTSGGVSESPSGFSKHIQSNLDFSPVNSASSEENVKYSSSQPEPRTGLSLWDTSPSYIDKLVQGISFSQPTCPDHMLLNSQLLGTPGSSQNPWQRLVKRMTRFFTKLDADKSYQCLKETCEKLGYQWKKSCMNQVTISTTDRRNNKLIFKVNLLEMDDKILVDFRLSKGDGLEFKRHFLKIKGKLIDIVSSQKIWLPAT

Row | Structure (SMILES) | IC50 (CHK1 kinase) | IC50 (ES-2 cells) | IC50 (hERG current) | further results
1 | C[C@H](CN)COc1cnc2c(c1-c1cc(Nc3cnc(C#N)cn3)n[nH]1)OCC2 [Example 28, 5-[(5-{6-[(2R)-3-amino-2-methylpropoxy]-2,3-dihydrofuro[3,2-b]pyridin-7-yl}-1H-pyrazol-3-yl)amino]pyrazine-2-carbonitrile] | 0.43 nM | 6.4 nM |  | IC50 (HT1080 cells): < 3 nM; IC50 (BxPC3 cells): < 3 nM; IC50 (SW948 cells): 5 nM; IC50 (SJCRH30 cells): < 3 nM
2 | N#Cc1cnc(Nc2cc(-c3c(O[C@@H]4CCC[C@H](N)C4)cnc4c3OCC4)[nH]n2)cn1 [Example 24, 5-{[5-(6-{[(1R,3S)-3-aminocyclohexyl]oxy}-2,3-dihydrofuro[3,2-b]pyridin-7-yl)-1H-pyrazol-3-yl]amino}pyrazine-2-carbonitrile] | 0.31 nM | 12.7 nM | 4800 nM | 
3 | N#Cc1cnc(Nc2cc(-c3c(OCC4(CN)CC4)ccc4c3OCC4)[nH]n2)cn1 [Example 4, 5-{[5-(6-{[1-(aminomethyl)cyclopropyl]methoxy}-2,3-dihydro-1-benzofuran-7-yl)-1H-pyrazol-3-yl]amino}pyrazine-2-carbonitrile] | 0.27 nM | 9.1 nM | 300 nM | 
4 | N#Cc1cnc(Nc2cc(-c3c(OCCCN)ccc4c3OCC4)[nH]n2)cn1 [Example 3, 5-({5-[6-(3-aminopropoxy)-2,3-dihydro-1-benzofuran-7-yl]-1H-pyrazol-3-yl}amino)pyrazine-2-carbonitrile] |  | 4 nM | 530 nM | 
5 | N#Cc1cnc(Nc2cc(-c3c(OC[C@@H]4CNCCO4)cnc4cccnc34)[nH]n2)cn1 [Example 12] | 0.38 nM | 23.2 nM | 1000 nM | 
6 | N#Cc1cnc(Nc2cc(-c3c(OCCCN)ccc4ccnn34)[nH]n2)cn1 [Example 6, 5-({5-[6-(3-aminopropoxy)pyrazolo[1,5-a]pyridin-7-yl]-1H-pyrazol-3-yl}amino)pyrazine-2-carbonitrile] | 0.21 nM | 6.24 nM | 1300 nM | Compound concentration in liposome solution [1]: 1880 µg/mL; Encapsulation ratio [1]: 100.0%; AUC(0-t) [2]: 430 µg·h/mL
7 | N#Cc1cnc(Nc2cc(-c3c(OCCCN)cnc4cccnc34)[nH]n2)cn1 [Example 8, 5-({5-[3-(3-aminopropoxy)-1,5-naphthyridin-4-yl]-1H-pyrazol-3-yl}amino)pyrazine-2-carbonitrile] | 0.5 nM | 7.02 nM |  | IC50 (HT1080 cells): 9.1 nM; IC50 (BxPC3 cells): 7 nM; IC50 (SW948 cells): 22.3 nM; IC50 (SJCRH30 cells): < 3 nM
8 | N#Cc1cnc(Nc2cc(-c3c(O[C@H]4C[C@H](N)[C@H]5C[C@H]54)cnc4c3OCC4)[nH]n2)cn1 [Example 29, 5-{[5-(6-{[(1R,2S,4S,5S)-4-aminobicyclo[3.1.0]hexan-2-yl]oxy)-2,3-dihydrofuro[3,2-b]pyridin-7-yl)-1H-pyrazol-3-yl]amino}pyrazine-2-carbonitrile] | 0.33 nM | 29.4 nM | > 10000 nM | 
9 | COc1cccc(OCCCN)c1-c1cc(Nc2cnc(C#N)cn2)n[nH]1 [Prexasertib, reference compound] |  | 8.55 nM |  | IC50 (HT1080 cells): 14.9 nM; IC50 (BxPC3 cells): 9.5 nM; IC50 (SW948 cells): 38.9 nM; Compound concentration in liposome solution [1]: 2160 µg/mL; IC50 (SJCRH30 cells): 4.9 nM
10 | N#Cc1cnc(Nc2cc(-c3c(OCC4(CN)CC4)cnc4cccnc34)[nH]n2)cn1 [Example 10, 5-{[5-(3-{[1-(aminomethyl)cyclopropyl]methoxy}-1,5-naphthyridin-4-yl)-1H-pyrazol-3-yl]amino}pyrazine-2-carbonitrile] | 0.34 nM | 6.6 nM |  | 
11 | N#Cc1cnc(Nc2cc(-c3c(OC[C@H]4CCNC4)cnc4c3OCC4)[nH]n2)cn1 [Example 26, 5-{[5-(6-{[(3S)-pyrrolidin-3-yl]methoxy}-2,3-dihydrofuro[3,2-b]pyridin-7-yl)-1H-pyrazol-3-yl]amino}pyrazine-2-carbonitrile] | 0.34 nM | 9.4 nM |  | 
12 | N#Cc1cnc(Nc2cc(-c3c(OCCCN)ccc4cccnc34)[nH]n2)cn1 [Example 1, 5-({5-[7-(3-aminopropoxy)quinolin-8-yl]-1H-pyrazol-3-yl}amino)pyrazine-2-carbonitrile] | 0.37 nM | 4.9 nM |  | 
13 | N#Cc1cnc(Nc2cc(-c3c(OCC4(CN)CC4)cnc4c3OCC4)[nH]n2)cn1 [Example 14, 5-{[5-(6-{[1-(aminomethyl)cyclopropyl]methoxy)-2,3-dihydrofuro[3,2-b]pyridin-7-yl)-1H-pyrazol-3-yl]amino}pyrazine-2-carbonitrile] | 0.27 nM | 3.72 nM | > 10000 nM | selectivity ratio (hERG): ≥ 800; Compound concentration in liposome solution [1]: 1940 µg/mL; Encapsulation ratio [1]: 99.9%; AUC(0-t) [2]: 397 µg·h/mL
14 | N#Cc1cnc(Nc2cc(-c3c(OCC4(F)CNC4)cnc4cccnc34)[nH]n2)cn1 [Example 35, 5-[(5-{3-[(3-fluoroazetidin-3-yl)methoxy]-1,5-naphthyridin-4-yl}-1H-pyrazol-3-yl)amino]pyrazine-2-carbonitrile] | 0.6 nM | 8 nM | > 10000 nM | selectivity ratio (hERG): ≥ 800
15 | C[C@@H](CN)COc1cnc2c(c1-c1cc(Nc3cnc(C#N)cn3)n[nH]1)OCC2 [Example 30, 5-[(5-{6-[(2S)-3-amino-2-methylpropoxy]-2,3-dihydrofuro[3,2-b]pyridin-7-yl}-1H-pyrazol-3-yl)amino]pyrazine-2-carbonitrile] | 0.43 nM | 14.8 nM |  | 
16 | N#Cc1cnc(Nc2cc(-c3c(O[C@@H]4CCC[C@H]4CN)cnc4cccnc34)[nH]n2)cn1 [Example 34, 5-{[5-(3-{[(1R,2S)-2-(aminomethyl)cyclopentyl]oxy}-1,5-naphthyridin-4-yl)-1H-pyrazol-3-yl]amino}pyrazine-2-carbonitrile] | 0.75 nM | 5.5 nM |  | 
